Data as given in article PMC12254355 (Nature Communications, 2025).
Ends that are not written are not given here.

Tests used:
[1] = test system: P. aeruginosa PAO1; details: PAO1, 24 h
[2] = test system: E. faecium ATCC 700221 - VRE; details: ATCC 700221, 24 h
[3] = test system: HEK293T cells; details: for CC50 vs HEK293T cells (source data of Figure 4a): 24 h
[4] = test system: human red blood cells; details: pH 7.4
[5] = test system: A. baumannii ATCC 19606; details: ATCC 19606, 24 h
[6] = test system: E. coli ATCC 11775; details: ATCC 11775, 24 h
[7] = test system: E. coli AIC221; details: AIC221, 24 h
[8] = test system: P. aeruginosa PA14; details: PA14, 24 h

Row | Molecule | Minimal Inhibitory Concentration, P. aeruginosa PAO1 (-) [1] [µmol/L] | Minimal Inhibitory Concentration, E. faecium ATCC 700221 - VRE (+) [2] [µmol/L] | SIcytotoxicity [3] | HC50 [4] | Minimal Inhibitory Concentration, A. baumannii ATCC 19606 (-) [5] [µmol/L] | Minimal Inhibitory Concentration, E. coli ATCC 11775 (-) [6] [µmol/L] | Minimal Inhibitory Concentration, E. coli AIC221 (-) [7] [µmol/L] | Minimal Inhibitory Concentration, P. aeruginosa PA14 (-) [8] [µmol/L] | CC50 vs HEK293T cells [3] [µM] | CC50 vs HEK293T cells (source data of Figure 4a) [3] [µM]
1 | CC(C)C[C@H](NC(=O)[C@H](Cc1ccccc1)NC(=O)CNC(=O)[C@H](CCCNC(=N)N)NC(=O)[C@H](CCCNC(=N)N)NC(=O)[C@H](CCC(N)=O)NC(=O)[C@H](Cc1c[nH]c2ccccc12)NC(=O)[C@H](CC(C)C)NC(=O)[C@@H]1CCCN1C(=O)[C@H](CO)NC(=O)[C@H](C)NC(=O)[C@H](CCCNC(=N)N)NC(=O)CNC(=O)[C@H](CCCNC(=N)N)NC(=O)[C@@H](N)CCCCN)C(=O)N[C@@H](CO)C(=O)N[C@@H](CCCCN)C(=O)N[C@@H](CC(C)C)C(=O)N[C@@H](CCCCN)C(=O)N[C@@H](C)C(=O)N[C@@H](CCCNC(=N)N)C(=O)N[C@@H](C)C(=O)N[C@@H](CCCCN)C(=O)N[C@@H](CCCNC(=N)N)C(=O)N[C@@H](CC(N)=O)C(=O)NCC(=O)N[C@@H](C)C(=O)N[C@@H](Cc1ccccc1)C(=O)N[C@@H](Cc1c[nH]cn1)C(=O)N[C@@H](CC(C)C)C(=O)N1CCC[C@H]1C(=O)N[C@@H](CCCNC(=N)N)C(=O)O [Conoserver-7] | 64 | 32 | 2.5 | 1.085e+083 |  |  |  |  |  | 
2 | ARKFKWGKLFSAGKKLLKKAKKLSKNK [Arachnoserver-11] | 8 | 8 | 2.2 | 1118.0 | 64 | 32 | 4 | 8 | 9 | 8.722
3 | FIKKLWRSKLAKKLRAKGRELLK [UniprotKB-17] | 8 | 16 | 3.9 | 4.224e+042 | 32 | 16 | 16 | 16 |  | 30.97
4 | FLKKIWRSKLVKRL [UniprotKB-9] |  |  | 1.3 | 219457.0 |  |  |  | 16 | 20 | 20.18
5 | GKWLISSLVAKHL [UniprotKB-6] |  |  | 0.3 | 686.0 |  |  |  |  | 19 | 19.46
6 | KKQIRLYLLKYYGKKSSSKSVRKIVISK [Arachnoserver-20] |  | 32 | 2.8 | 896.7 |  |  |  |  |  | 
7 | KKWRELSRLSRVLQIL [Conoserver-14] | 64 | 32 | 7.3 | 1826.0 | 16 | 16 | 8 |  |  | 
8 | KLHGLLTRRSLKNFWKRNLYLR [Conoserver-6] | 16 | 32 | 7.9 | 66.3 | 32 | 64 | 4 | 32 |  | 31.74
9 | KLWNSKLARKIRTKGLKYVKNFAK [UniprotKB-3] |  | 32 | 1.5 | 8.23e+034 |  |  |  |  |  | 11.61
10 | KQKYLIKRSRAKMQNHKLFKLTKR [Conoserver-16] |  | 64 | 1.5 | 1.085e+083 |  |  |  |  |  | 
11 | KRKGYLRLVPEERIWQKGLWWLRRLETDSDKLQK [ISOB-3] |  |  |  | 1.085e+083 |  |  |  |  |  | 
12 | KRLKGFAKKLWNSKLARKIRTKGLKYVKNFAK [UniprotKB-7] |  | 8 | 3.7 | 207.9 |  |  |  |  |  | 14.78
13 | KRRRASPLWKRRRFLSMLKARAK [Conoserver-2] | 64 | 32 | 3.6 | 1570.0 |  |  |  |  |  | 
14 | KRRRASPLWKRRRFLSMLKARAK [UniprotKB-10] |  | 32 | 1.3 | 627.2 |  |  |  |  |  | 43.12
15 | KWGKLFSAGKKLLKKAKKL [Arachnoserver-4] | 8 | 16 | 2.4 | 1.085e+083 | 64 | 32 | 16 | 16 | 20 | 19.57
16 | KWLGKLGVILSHL [UniprotKB-15] |  | 64 | 1.4 | 1.374e+045 | 64 | 32 | 32 |  |  | 45.97
17 | LRAKMLNSKFIKL [Conoserver-5] |  |  |  | 1.085e+083 |  |  |  |  |  | 
18 | LTKWLGKLGVIL [UniprotKB-11] |  |  | 4.4 | 146.7 |  |  |  |  |  | 
19 | PLWKRRRFLSMLKARAKR [Conoserver-4] | 64 | 32 | 2.6 | 707.7 |  |  |  |  |  | 
20 | QPRRVKRFKKFFKKLKNSVKKRAKKF [ISOB-7] | 64 | 32 | 4.0 | 569.0 |  |  | 64 |  |  | 
21 | RFGSFLKKVWKSKLAKKL [UniprotKB-20] | 8 | 8 | 6.6 | 18147.0 | 64 | 32 | 16 | 16 |  | 52.53
22 | RHRIVRTYIAKFGLK [ISOB-2] |  | 32 | 7.5 | 1.085e+083 |  |  | 64 |  |  | 
23 | RKFKWGKLFSTAKKLYKKGKKLSK [UniprotKB-16] | 4 | 32 | 5.9 | 2082.0 | 32 | 8 | 4 | 4 |  | 23.72
24 | RKRRRFISMLKARAKRR [Conoserver-15] |  | 32 | 0.7 | 1.085e+083 |  |  |  |  |  | 22.52
25 | RLRAKMRNSKLFKLTKR [Conoserver-10] |  |  |  | 1.085e+083 |  |  |  |  |  | 
26 | RQEYPTKRLRAKMLNSKFIKLIKR [Conoserver-12] |  | 16 | 5.8 | 1.085e+083 |  |  | 32 |  |  | 
27 | RRASPLWKRRRFLSMLKARAKRTGYK [Conoserver-3] | 64 | 32 | 6.0 | 459.2 |  |  | 64 |  |  | 
28 | RRVKRFKKFFKKL [ISOB-6] | 32 | 32 | 6.5 | 1.085e+083 |  |  |  | 64 |  | 
29 | RRVKRFKKFFMKL [UniprotKB-18] | 32 | 32 | 3.1 | 1.827e+053 |  |  | 64 |  |  | 
30 | SFKKILSAGKKLFKKAKKL [Arachnoserver-29] | 16 | 16 | 4.3 | 1.085e+083 |  | 16 | 4 | 16 |  | 17.1
